Where two headings read alike, the source gives them in different places.
Key:
Format in all cases: cell-based
[1] = test system: BaF3_HER2WT cells; assay: Cell growth inhibition assay, BaF3_HER2WT; conditions: 3 days treatment, CellTiterGlo 2.0, read-out: HER2 WT IC50 (nM), cell growth inhibition
[2] = test system: BaF3_EGFRWT cells; assay: Cell growth inhibition assay, BaF3_EGFRWT; conditions: 80 ng/mL recombinant human EGF, 3 days treatment, CellTiterGlo 2.0, read-out: EGFR WT IC50 (nM), cell growth inhibition
[3] = test system: BaF3_HER2YVMA cells; assay: Cell growth inhibition assay, BaF3_HER2YVMA; conditions: BaF3_HER2YVMA cells, 3 days treatment, CellTiterGlo 2.0, read-out: HER2-YVMA IC50 (nM), cell growth inhibition

IC50 ([1]; 72 h) | IC50 ([2]; 72 h) | IC50 ([3]; 72 h) | IC50 [1] | IC50 [2] | IC50 [3] | SMILES
200 to 500 nM | 1500 to 5000 nM | 1500 to 5000 nM | – | – | – | C=CC(=O)N1CC(N(C)c2ccn3ncnc(Nc4ccc(Oc5ccn6ncnc6c5)c(C)c4)c23)C1 [Example 77, 1-(3-((4-((4-([1,2,4]triazolo[1,5-a]pyridin-7-yloxy)-3-methylphenyl)amino)pyrrolo[2,1-f][1,2,4]triazin-5-yl)(methyl)amino)azetidin-1-yl)prop-2-en-1-one]
< 200 nM | 1500 to 5000 nM | < 200 nM | – | – | – | Cc1cc(Nc2ncnn3ccc(C4CN(C(=O)/C=C/C5CCCN5C)C4)c23)ccc1Oc1ccn2ncnc2c1 (stereo not drawn) [Example 66, (E)-1-(3-(4-((4-([1,2,4]triazolo[1,5-a]pyridin-7-yloxy)-3-methylphenyl)amino)pyrrolo[2,1-f][1,2,4]triazin-5-yl)azetidin-1-yl)-3-(1-methylpyrrolidin-2-yl)prop-2-en-1-one]
– | – | – | < 200 nM | 1500 to 5000 nM | 200 to 500 nM | Cc1cc(Nc2ncnn3ccc(C4CC5CCC4CN5C(=O)/C=C/CN(C)C)c23)ccc1Oc1ccn2ncnc2c1 (single isomer, unassigned; first eluting) [Examples 137 and 138, first eluting isomer]
200 to 500 nM | 1500 to 5000 nM | 1500 to 5000 nM | – | – | – | Cc1cc(Nc2ncnn3ccc(C4CN(C(=O)/C=C/CN(C)C)C4)c23)ccc1Oc1ccn2cnnc2c1 [Example 134, (E)-1-(3-(4-((4-([1,2,4]triazolo[4,3-a]pyridin-7-yloxy)-3-methylphenyl)amino)pyrrolo[2,1-f][1,2,4]triazin-5-yl)azetidin-1-yl)-4-(dimethylamino)but-2-en-1-one]
– | – | – | < 200 nM | 500 to 1500 nM | < 200 nM | Cc1cc(Nc2ncnn3ccc(C4CCCN(C(=O)C(F)Cl)CC4)c23)ccc1Oc1ccn2ncnc2c1 (single isomer, unassigned) [Examples 145, 146, 147 and 148, second eluting isomer, 1-(4-(4-((4-([1,2,4]triazolo[1,5-a]pyridin-7-yloxy)-3-methylphenyl)amino)pyrrolo[2,1-f][1,2,4]triazin-5-yl)azepan-1-yl)-2-chloro-2-fluoroethan-1-one]
– | 1500 to 5000 nM | – | < 200 nM | – | 500 to 1500 nM | Cc1cc(Nc2ncnn3ccc(C4CCCN(C(=O)/C=C/CN(C)C)C4)c23)ccc1Oc1ccn2ncnc2c1 (single isomer, unassigned) [Examples 107 and 108, first eluting isomer, (E)-1-(3-(4-((4-([1,2,4]triazolo[1,5-a]pyridin-7-yloxy)-3-methylphenyl)amino)pyrrolo[2,1-f][1,2,4]triazin-5-yl)piperidin-1-yl)-4-(dimethylamino)but-2-en-1-one]
< 200 nM | 1500 to 5000 nM | < 200 nM | – | – | – | Cc1cc(Nc2ncnn3ccc(C4CN(C(=O)/C=C/C5CCCN5C)C4)c23)ccc1Oc1ccn2ncnc2c1 (single isomer, unassigned) [Examples 171 and 172, second eluting isomer, (E)-1-(3-(4-((4-([1,2,4]triazolo[1,5-a]pyridin-7-yloxy)-3-methylphenyl)amino)pyrrolo[2,1-f][1,2,4]triazin-5-yl)azetidin-1-yl)-3-(1-methylpyrrolidin-2-yl)prop-2-en-1-one]
< 200 nM | 1500 to 5000 nM | < 200 nM | – | – | – | Cc1cc(Nc2ncnn3ccc(C4CCN(C(=O)/C=C/CN(C)C)CC4(F)F)c23)ccc1Oc1ccn2ncnc2c1 (stereo not drawn) [Example 176, (E)-1-(4-(4-((4-([1,2,4]triazolo[1,5-a]pyridin-7-yloxy)-3-methylphenyl)amino)pyrrolo[2,1-f][1,2,4]triazin-5-yl)-3,3-difluoropiperidin-1-yl)-4-(dimethylamino)but-2-en-1-one]
< 200 nM | – | – | – | 1500 to 5000 nM | 200 to 500 nM | Cc1cc(Nc2ncnn3ccc(C4CCCN(C(=O)C(F)Cl)CC4)c23)ccc1Oc1ccn2ncnc2c1 (single isomer, unassigned) [Examples 145, 146, 147 and 148, first eluting isomer, 1-(4-(4-((4-([1,2,4]triazolo[1,5-a]pyridin-7-yloxy)-3-methylphenyl)amino)pyrrolo[2,1-f][1,2,4]triazin-5-yl)azepan-1-yl)-2-chloro-2-fluoroethan-1-one]
< 200 nM | 1500 to 5000 nM | < 200 nM | – | – | – | Cc1cc(Nc2ncnn3ccc(C4CCN(C(=O)/C=C/[C@H]5CCCN5C)CC4)c23)ccc1Oc1ccn2ncnc2c1 [Example 25, (R,E)-1-(4-(4-((4-([1,2,4]triazolo[1,5-a]pyridin-7-yloxy)-3-methylphenyl)amino)pyrrolo[2,1-][1,2,4]triazin-5-yl)piperidin-1-yl)-3-(1-methylpyrrolidin-2-yl)prop-2-en-1-one]
< 200 nM | – | < 200 nM | – | 1500 to 5000 nM | – | C=C(CN(C)C)C(=O)N1CC2CCC1CC2c1ccn2ncnc(Nc3ccc(Oc4ccn5ncnc5c4)c(C)c3)c12 (single isomer, unassigned) [Examples 135 and 136, first eluting isomer, 1-(5-(4-((4-([1,2,4]triazolo[1,5-a]pyridin-7-yloxy)-3-methylphenyl)amino)pyrrolo[2,1-f][1,2,4]triazin-5-yl)-2-azabicyclo[2.2.2]octan-2-yl)-2-((dimethylamino)methyl)prop-2-en-1-one]
1500 to 5000 nM | 1500 to 5000 nM | 1500 to 5000 nM | – | – | – | Cc1cc(Nc2ncnn3ccc(C4CCN(C(=O)/C=C/C(=O)O)CC4)c23)ccc1Oc1ccn2ncnc2c1 [Example 142, (E)-4-(4-(4-((4-([1,2,4]triazolo[1,5-a]pyridin-7-yloxy)-3-methylphenyl)amino)pyrrolo[2,1-f][1,2,4]triazin-5-yl)piperidin-1-yl)-4-oxobut-2-enoic acid]
< 200 nM | 1500 to 5000 nM | < 200 nM | – | – | – | C=CC(=O)N1CCCC(c2ccn3ncnc(Nc4ccc(Oc5ccn6ncnc6c5)c(C)c4)c23)CC1 (single isomer, unassigned) [Examples 111 and 112, first eluting isomer, 1-(4-(4-((4-([1,2,4]triazolo[1,5-a]pyridin-7-yloxy)-3-methylphenyl)amino)pyrrolo-[2,1-f][1,2,4]triazin-5-yl)azepan-1-yl)prop-2-en-1-one]
< 200 nM | 200 to 500 nM | < 200 nM | – | – | – | Cc1cc(Nc2ncnn3ccc(C4CCN(C(=O)C#CCN(C)C)CC4)c23)ccc1Oc1ccn2ncnc2c1 [Example 64, 1-(4-(4-((4-([1,2,4]triazolo[1,5-a]pyridin-7-yloxy)-3-methylphenyl)amino)pyrrolo[2,1-f][1,2,4]triazin-5-yl)piperidin-1-yl)-4-(dimethylamino)but-2-yn-1-one]
< 200 nM | 1500 to 5000 nM | < 200 nM | – | – | – | Cc1cc(Nc2ncnn3ccc(C4CN(C(=O)/C(F)=C/C5CCCN5C)C4)c23)ccc1Oc1ccn2ncnc2c1 (stereo not drawn) [Example 92, (Z)-1-(3-(4-((4-([1,2,4]triazolo[1,5-a]pyridin-7-yloxy)-3-methylphenyl)amino)pyrrolo[2,1-f][1,2,4]triazin-5-yl)azetidin-1-yl)-2-fluoro-3-(1-methylpyrrolidin-2-yl)prop-2-en-1-one]
< 200 nM | 1500 to 5000 nM | < 200 nM | – | – | – | Cc1cc(Nc2ncnn3ccc(C4CCN(C(=O)/C=C/CN(C)C)CC4)c23)ccc1Oc1ccc2c(c1)ncn2C [Example 133, (E)-4-(dimethylamino)-1-(4-(4-((3-methyl-4-((1-methyl-1H-benzo[d]-224-midazole-5-yl)oxy)phenyl)amino)pyrrolo[2,1-f][1,2,4]triazin-5-yl)piperidin-1-yl)but-2-en-1-one]
1500 to 5000 nM | 1500 to 5000 nM | 1500 to 5000 nM | – | – | – | CN(C)C/C=C/C(=O)N1CC(c2ccn3ncnc(Nc4cnc(Oc5cccc(C(F)(F)F)c5)c(Cl)c4)c23)C1 [Example 90, (E)-1-(3-(4-((5-chloro-6-(3-(trifluoromethyl)phenoxy)pyridin-3-yl)amino)pyrrolo[2,1-f][1,2,4]triazin-5-yl)azetidin-1-yl)-4-(dimethylamino)but-2-en-1-one]

SMILES | IC50 ([1]; 72 h) | IC50 ([2]; 72 h) | IC50 ([3]; 72 h) | IC50 [1] | IC50 [2] | IC50 [3]
C=CC(=O)N1C2CCC1CN(c1ccn3ncnc(Nc4ccc(Oc5ccn6ncnc6c5)c(C)c4)c13)C2 [Example 46, 1-(3-(4-((4-([1,2,4]triazolo[1,5-a]pyridin-7-yloxy)-3-methylphenyl)amino)pyrrolo[2,1-f][1,2,4]triazin-5-yl)-3,8-diazabicyclo[3.2.1]octan-8-yl)prop-2-en-1-one] | < 200 nM | 200 to 500 nM | < 200 nM | – | – | –
C=C(CN(C)C)C(=O)N1C2C=C(c3ccn4ncnc(Nc5ccc(Oc6ccn7ncnc7c6)c(C)c5)c34)CC1CC2 (stereo not drawn) [Example 30, 1-(3-(4-((4-([1,2,4]triazolo[1,5-a]pyridin-7-yloxy)-3-methylphenyl)amino)pyrrolo[2,1-f][1,2,4]triazin-5-yl)-8-azabicyclo[3.2.1]oct-2-en-8-yl)-2-((dimethylamino)methyl)prop-2-en-1-one acetate] | < 200 nM | 1500 to 5000 nM | < 200 nM | – | – | –
C=CC(=O)N1CCC2CCC(C1)N2c1ccn2ncnc(Nc3ccc(Oc4ccn5ncnc5c4)c(C)c3)c12 (stereo not drawn) [Example 55, 1-(9-(4-((4-([1,2,4]triazolo[1,5-a]pyridin-7-yloxy)-3-methylphenyl)amino)pyrrolo[2,1-f][1,2,4]triazin-5-yl)-3,9-diazabicyclo[4.2.1]nonan-3-yl)prop-2-en-1-one] | < 200 nM | 1500 to 5000 nM | 500 to 1500 nM | – | – | –
